Measured values reported in ChEMBL document CHEMBL1201862, “PubChem BioAssay data set” (2004).
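Values below derive from 48-hour exposures of cells grown in 96-well plates, with endpoints linearly interpolated between the two concentrations bracketing the appropriate inhibition level. GI50: concentration for 50% inhibition of growth.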 Active and inactive are the calls of the source. No stated cut-off is given here; in the data, active = GI50 up to about 1.1 µM and inactive = higher.

What was measured:
Test in all cases: NCI anticancer screen, dose series, 48 h
[1] = tested on: SW-620
[2] = tested on: M14
[3] = tested on: U-251
[4] = tested on: OVCAR-8
[5] = tested on: MOLT-4
[6] = tested on: SK-MEL-28
[7] = tested on: IGROV-1
[8] = tested on: NCI-H23
[9] = tested on: HCC 2998
[10] = tested on: UACC-62
[11] = tested on: SR
[12] = tested on: TK-10
[13] = tested on: HCT-15
[14] = tested on: OVCAR-5
[15] = tested on: Malme-3M
[16] = tested on: SF-539
[17] = tested on: SF-268
[18] = tested on: EKVX
[19] = tested on: T47D
[20] = tested on: MCF7

| Structure (SMILES) | GI50 [1] | GI50 [2] | GI50 [3] | GI50 [4] | GI50 [5] | GI50 [6] | GI50 [7] | GI50 [8] | GI50 [9] | GI50 [10] | GI50 [11] | GI50 [12] | GI50 [13] [µM] | GI50 [14] | GI50 [15] | GI50 [16] | GI50 [17] | GI50 [18] | GI50 [19] | GI50 [20] |
| --- | --- | --- | --- | --- | --- | --- | --- | --- | --- | --- | --- | --- | --- | --- | --- | --- | --- | --- | --- | --- |
| COc1cc2c3c(c1OC)C(=O)C=C3N(S(=O)(=O)c1ccc(C)cc1)CC2 | > 100 µM (inactive) | > 100 µM (inactive) | 84.5 µM (inactive) | > 100 µM (inactive) | > 100 µM (inactive) | > 100 µM (inactive) | > 100 µM (inactive) | > 100 µM (inactive) | > 100 µM (inactive) | > 100 µM (inactive) | > 100 µM (inactive) | > 100 µM (inactive) | > 100 | > 100 µM (inactive) | > 100 µM (inactive) | 52.7 µM (inactive) | > 100 µM (inactive) | > 100 µM (inactive) |  |  |
| CN1C(=O)c2cccc3c([N+](=O)[O-])ccc(c23)C1=O | 2.43 µM (inactive) | 11.1 µM (inactive) | 3.7 µM (inactive) | 6.01 µM (inactive) | 5.55 µM (inactive) | 18.8 µM (inactive) | 3.49 µM (inactive) | 11.9 µM (inactive) | 6 µM (inactive) | 1.77 µM (inactive) | 3.25 µM (inactive) | 3.86 µM (inactive) | 2.84 | 3.5 µM (inactive) | 16.2 µM (inactive) | 13.2 µM (inactive) | 9.68 µM (inactive) | 13.7 µM (inactive) |  |  |
| CCOC(=O)C1=C(O)C(=O)c2cc(OC)ccc2C1=O | > 100 µM (inactive) | > 100 µM (inactive) | > 100 µM (inactive) | > 100 µM (inactive) | > 100 µM (inactive) | > 100 µM (inactive) | > 100 µM (inactive) | 31.8 µM (inactive) | > 100 µM (inactive) | > 100 µM (inactive) | > 100 µM (inactive) | > 100 µM (inactive) | > 100 | > 100 µM (inactive) | > 100 µM (inactive) | 65.9 µM (inactive) | > 100 µM (inactive) | > 100 µM (inactive) |  |  |
| CCOC(=O)C1C(=O)C(=O)N2CCc3c([nH]c4ccccc34)C12 (stereo not drawn) | > 100 µM (inactive) | > 100 µM (inactive) | > 100 µM (inactive) | > 100 µM (inactive) | > 100 µM (inactive) | > 100 µM (inactive) | > 100 µM (inactive) | > 100 µM (inactive) | > 100 µM (inactive) | > 100 µM (inactive) | > 100 µM (inactive) | > 100 µM (inactive) | > 100 | > 100 µM (inactive) | > 100 µM (inactive) | > 100 µM (inactive) | > 100 µM (inactive) | > 100 µM (inactive) |  |  |
| CCOc1ccc2nc(NC(=O)C(=O)C(C#N)CC(C)(C)C=O)sc2c1 (stereo not drawn) |  | > 100 µM (inactive) | > 100 µM (inactive) | > 100 µM (inactive) | > 100 µM (inactive) | > 100 µM (inactive) | > 100 µM (inactive) | > 100 µM (inactive) | > 100 µM (inactive) | > 100 µM (inactive) | 21 µM (inactive) | > 100 µM (inactive) | 43.9 | > 100 µM (inactive) | > 100 µM (inactive) | 75.7 µM (inactive) | > 100 µM (inactive) | > 100 µM (inactive) |  |  |
| C[N+]1(C)C/C(=C\c2ccc(O)cc2)C(=O)/C(=C/c2ccc(O)cc2)C1 | > 100 µM (inactive) | > 100 µM (inactive) | 49.5 µM (inactive) | 48.2 µM (inactive) | 47.4 µM (inactive) | > 100 µM (inactive) | > 100 µM (inactive) |  | > 100 µM (inactive) | 64.9 µM (inactive) | 82.4 µM (inactive) | 18 µM (inactive) | 60.1 | > 100 µM (inactive) | > 100 µM (inactive) | 65 µM (inactive) | 55.7 µM (inactive) | > 100 µM (inactive) |  |  |
| CC(=O)c1ccc2c(c1)N(CCCN1CCN(CCO)CC1)c1ccccc1C2 | 14.5 µM (inactive) | 13.6 µM (inactive) | 15.8 µM (inactive) | 16.7 µM (inactive) | 18.4 µM (inactive) | 11.2 µM (inactive) | 17.3 µM (inactive) | 15.8 µM (inactive) |  | 10.8 µM (inactive) |  | 14.7 µM (inactive) | 14.4 | 17.2 µM (inactive) | 18.2 µM (inactive) | 16.7 µM (inactive) | 17.8 µM (inactive) | 17.9 µM (inactive) | 12.3 µM (inactive) |  |
| CC(=O)OI1NC(=O)c2ccccc21 | > 100 µM (inactive) | > 100 µM (inactive) | > 100 µM (inactive) | > 100 µM (inactive) | > 100 µM (inactive) | > 100 µM (inactive) | > 100 µM (inactive) | > 100 µM (inactive) |  | > 100 µM (inactive) | > 100 µM (inactive) | > 100 µM (inactive) | > 100 | > 100 µM (inactive) | > 100 µM (inactive) |  | > 100 µM (inactive) | > 100 µM (inactive) |  | 93.5 µM (inactive) |
| N#CC(C#N)=c1c2ccccc2c(=C(C#N)C#N)c2ccccc12 | 24.8 µM (inactive) | 17.4 µM (inactive) | 19.4 µM (inactive) | 20.1 µM (inactive) | 7.76 µM (inactive) | 17.7 µM (inactive) | 12.8 µM (inactive) | 19.6 µM (inactive) |  | 13.2 µM (inactive) |  |  | 43.3 | 20.9 µM (inactive) |  |  | 22.9 µM (inactive) |  |  | 5.61 µM (inactive) |
| CCOC(=O)[C@H]1Nc2ccc(Cl)cc2[C@H]2CCC[C@@H]12 | > 100 µM (inactive) | > 100 µM (inactive) | > 100 µM (inactive) | > 100 µM (inactive) | > 100 µM (inactive) | > 100 µM (inactive) | > 100 µM (inactive) | > 100 µM (inactive) | > 100 µM (inactive) | > 100 µM (inactive) | > 100 µM (inactive) | > 100 µM (inactive) | > 100 | 63.5 µM (inactive) | > 100 µM (inactive) | > 100 µM (inactive) | > 100 µM (inactive) | 92.3 µM (inactive) |  |  |
| Cc1cc(C)nc(NS(=O)(=O)c2ccc(Nc3c4ccccc4nc4c(C(=O)N5CCN(CCO)CC5)cccc34)cc2)n1 | > 100 µM (inactive) | > 100 µM (inactive) | > 100 µM (inactive) | > 100 µM (inactive) | > 100 µM (inactive) | > 100 µM (inactive) | > 100 µM (inactive) | > 100 µM (inactive) | > 100 µM (inactive) | > 100 µM (inactive) | > 100 µM (inactive) | > 100 µM (inactive) | > 100 | > 100 µM (inactive) | > 100 µM (inactive) | > 100 µM (inactive) | > 100 µM (inactive) | > 100 µM (inactive) |  |  |
| CC(C)N(C(=O)C12C3C4C1C1C4(C#N)C3C12C(=O)O)C(C)C (stereo not drawn) | > 60.3 µM (inactive) | > 100 µM (inactive) | > 100 µM (inactive) | > 86.9 µM (inactive) | > 100 µM (inactive) | > 100 µM (inactive) | > 100 µM (inactive) | > 100 µM (inactive) | > 100 µM (inactive) | > 100 µM (inactive) | 16.8 µM (inactive) | > 100 µM (inactive) | > 44.7 | > 100 µM (inactive) | > 100 µM (inactive) | > 100 µM (inactive) | > 100 µM (inactive) | > 100 µM (inactive) |  |  |
| OC1CC(O)O[C@H](c2ccccc2)C1 (stereo partly drawn) | > 100 µM (inactive) | > 100 µM (inactive) |  | 85.3 µM (inactive) | > 100 µM (inactive) | > 100 µM (inactive) | > 100 µM (inactive) | > 100 µM (inactive) | > 100 µM (inactive) | > 100 µM (inactive) | > 100 µM (inactive) | > 100 µM (inactive) | > 100 | > 100 µM (inactive) | > 100 µM (inactive) | > 100 µM (inactive) | > 100 µM (inactive) | > 100 µM (inactive) |  |  |
| C[C@H]1[C@H](C)CC[C@]2(C(=O)O)CCC3(COC(=O)/C=C/c4ccc(O)cc4)C(=CCC4[C@@]5(C)CC[C@H](O)C(C)(C)C5CC[C@]43C)[C@H]12 (stereo partly drawn) | 3.36 µM (inactive) | 11.2 µM (inactive) | 2.33 µM (inactive) | 4.51 µM (inactive) | 3.52 µM (inactive) | 10.8 µM (inactive) | 3.46 µM (inactive) |  | 5.45 µM (inactive) | 9.4 µM (inactive) | 3.91 µM (inactive) | 10.5 µM (inactive) | 4.62 | 14.8 µM (inactive) | 19.3 µM (inactive) | 4.17 µM (inactive) | 4.67 µM (inactive) | 11 µM (inactive) |  |  |
| O=C1c2ccsc2C(=O)c2sc(CO)cc21 | 0.0564 µM (active) | < 0.0123 µM (active) | 0.156 µM (active) | 0.113 µM (active) | 0.524 µM (active) | 0.0307 µM (active) | 0.627 µM (active) | 0.0322 µM (active) | 3.52 µM (inactive) | 0.0553 µM (active) | 0.0984 µM (active) | 5.93 µM (inactive) | 0.0421 | 1.43 µM (inactive) | 0.61 µM (active) | 0.0469 µM (active) | 1.11 µM (active) | 1.65 µM (inactive) |  |  |
| C[C@]12CC[C@H]3[C@@H](CC[C@]4(O)C[C@@H](O)CC[C@]34C=O)[C@@]1(O)CC[C@@H]2C1=CC(=O)OC1 [STROPHANTHIDIN] | 0.528 µM (active) | 1.07 µM (active) | 0.698 µM (active) | 0.498 µM (active) | 0.112 µM (active) | 1.73 µM (inactive) | 0.453 µM (active) | 0.265 µM (active) | 4.27 µM (inactive) | 1.52 µM (inactive) | 0.386 µM (active) | 0.465 µM (active) | 0.413 | 1.42 µM (inactive) | 0.435 µM (active) | 0.294 µM (active) | 0.397 µM (active) | 0.361 µM (active) | 0.697 µM (active) |  |
